Usually Ki stands for the equilibrium dissociation constant of an inhibitor or competing ligand from its target.

The target of assay [1] is T1, Adenosine receptor A3 (Homo sapiens, UniProt P0DMS8).
T1 sequence (P0DMS8 whole entry): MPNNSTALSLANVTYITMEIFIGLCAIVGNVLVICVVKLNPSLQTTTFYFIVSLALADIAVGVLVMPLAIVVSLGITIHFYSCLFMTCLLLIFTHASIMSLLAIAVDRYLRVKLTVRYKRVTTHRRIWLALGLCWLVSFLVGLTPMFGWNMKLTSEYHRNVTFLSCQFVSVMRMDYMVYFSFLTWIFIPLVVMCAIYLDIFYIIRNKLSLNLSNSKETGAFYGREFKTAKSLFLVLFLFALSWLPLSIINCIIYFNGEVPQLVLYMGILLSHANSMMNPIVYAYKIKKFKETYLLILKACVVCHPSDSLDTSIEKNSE
The experiment in a line: Agonist activity at Homo sapiens (human) adenosine A3 receptor expressed in CHO cells. The class given is cell-based.

For assay [2], the target named is T2, Adenosine receptor A2b (Homo sapiens) (UniProt P29275).
T2 sequence (whole entry): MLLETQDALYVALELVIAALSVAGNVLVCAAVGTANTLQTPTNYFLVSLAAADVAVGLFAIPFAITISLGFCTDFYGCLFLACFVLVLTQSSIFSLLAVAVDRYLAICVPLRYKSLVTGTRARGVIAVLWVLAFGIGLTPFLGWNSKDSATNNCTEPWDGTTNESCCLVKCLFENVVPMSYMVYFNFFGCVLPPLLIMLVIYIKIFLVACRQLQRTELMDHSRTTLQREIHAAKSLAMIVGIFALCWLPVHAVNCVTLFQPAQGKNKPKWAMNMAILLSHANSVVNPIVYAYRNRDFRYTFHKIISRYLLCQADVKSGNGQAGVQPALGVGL
Nature of the assay: Agonist activity at Homo sapiens (human) adenosine A2b receptor expressed in CHO cells relative to NECA. The class given is cell-based.

Assay [3] has as its target T3, Adenosine receptor A1 (Homo sapiens) (UniProt P30542).
T3 sequence (whole entry): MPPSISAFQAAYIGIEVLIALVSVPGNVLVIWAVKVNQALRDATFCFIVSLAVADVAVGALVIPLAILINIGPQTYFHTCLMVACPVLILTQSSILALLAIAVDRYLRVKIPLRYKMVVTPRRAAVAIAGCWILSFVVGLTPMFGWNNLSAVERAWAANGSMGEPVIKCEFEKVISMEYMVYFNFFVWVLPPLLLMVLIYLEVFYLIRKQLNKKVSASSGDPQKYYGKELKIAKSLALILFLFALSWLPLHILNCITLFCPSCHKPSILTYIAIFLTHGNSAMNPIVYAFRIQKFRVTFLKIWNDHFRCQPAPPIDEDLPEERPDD
Nature of the assay: Agonist activity at Homo sapiens (human) adenosine A1 receptor expressed in CHO cells relative to NECA. The class given is cell-based.

The target in assay [4] is T4, Adenosine receptor A2a (Homo sapiens, UniProt P29274). Nature of the assay: Agonist activity at Homo sapiens (human) adenosine A2a receptor expressed in CHO cells. Type of assay: functional, cell-based.
For assay [5], the target named is T5, Adenosine receptor A3 (Homo sapiens) (UniProt P0DMS8).
T5 sequence (whole entry): T1 sequence (P0DMS8 whole entry)
The experiment in a line: Agonist activity at Homo sapiens (human) adenosine A3 receptor expressed in CHO cells relative to NECA. Type of assay: cell-based.

The target of assay [6] is T4, Adenosine receptor A2a. The experiment in a line: Agonist activity at Homo sapiens (human) adenosine A2a receptor expressed in CHO cells relative to NECA. The class given is cell-based.
Assay [7] addresses T3, Adenosine receptor A1 (Homo sapiens). Nature of the assay: Intrinsic efficacy at Homo sapiens (human) adenosine A1 receptor expressed in CHO cells assessed as increase in intracellular calcium level by FLIPR assay relative to NECA. The class given is functional, cell-based. On the technique in general: Calcium flux is commonly read through the fluorescence of an indicator in the cells.

Assay [8] addresses T6, Adenosine receptor A1 (Homo sapiens, UniProt P30542).
T6 sequence (P30542 whole entry): T3 sequence (whole entry)
The experiment in a line: Agonist activity at Homo sapiens (human) adenosine A1 receptor expressed in CHO cells. The class given is cell-based.

The target in assay [9] is T7, Adenosine receptor A2b (Homo sapiens, UniProt P29275).
T7 sequence (P29275 whole entry): T2 sequence (whole entry)
The experiment in a line: Agonist activity at Homo sapiens (human) adenosine A2b receptor expressed in CHO cells. The class given is cell-based.

Some results are limits rather than exact numbers.

T4 sequence (P29274 whole entry): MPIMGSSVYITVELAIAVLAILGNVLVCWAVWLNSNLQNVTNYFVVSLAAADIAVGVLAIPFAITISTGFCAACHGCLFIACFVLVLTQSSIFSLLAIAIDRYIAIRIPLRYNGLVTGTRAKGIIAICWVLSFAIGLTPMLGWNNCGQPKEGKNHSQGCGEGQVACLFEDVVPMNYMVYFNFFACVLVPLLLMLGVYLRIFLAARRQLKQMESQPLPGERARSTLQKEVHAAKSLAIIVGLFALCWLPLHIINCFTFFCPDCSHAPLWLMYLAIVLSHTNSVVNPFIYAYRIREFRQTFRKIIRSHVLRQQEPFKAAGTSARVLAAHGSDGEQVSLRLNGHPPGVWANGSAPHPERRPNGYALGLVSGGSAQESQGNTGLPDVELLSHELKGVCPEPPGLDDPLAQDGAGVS

Take `COC[C@H]1O[C@@H](n2cnc3c(Nc4ccc(O)c(F)c4)ncnc32)[C@H](O)[C@@H]1O` [GR-190178]: the Ki in [1] was 3.16 µM; in assay [4] it was more than 100 µM; in assay [8] it was 0.251 µM. Moreover, the Ratio in [2] is more than 348; in assay [3], 12; in assay [5], more than 364; in assay [6], 725. In assay [7], the Efficacy stood at 12%.

In the case of `O[C@@H]1[C@H](O)[C@@H](CF)O[C@H]1n1cnc2c(NC3CCOCC3)ncnc21`, the Ki in assay [1] is 2.51 µM; in assay [9], more than 100 µM; in assay [4], 5.01 µM; in [8], 0.0251 µM. The Ratio was more than 273 in assay [2], 2.4 in assay [3], more than 251 in assay [5] and 212 in assay [6]. The Efficacy in assay [7] amounted to 84%.

For `OC[C@H]1O[C@@H](n2cnc3c(N[C@H]4CCC[C@@H]4O)ncnc32)[C@H](O)[C@@H]1O` [GR-79236], the Ki in assay [1] was 2.51 µM; in [9] it was 31.6 µM; in [4], 25.1 µM; in assay [8] it was 0.0158 µM. Besides, the Ratio in [2] is 195; in [3], 1.9; in [5], more than 190; in assay [6] it was 445. For the same compound, in assay [7], the Efficacy was 106%.

(Values after ChEMBL document CHEMBL3045486, “Potent, Selective Adenosine A1 Agonists as Potential Analgesics” (Med Chem Res, 2004).)
